Columns and labels:
[1] = molecular target: T1, Mitogen-activated protein kinase 1 (Homo sapiens, UniProt P28482)
[2] = molecular target: T1, Mitogen-activated protein kinase 1; remark: listed apart in the source
[3] = molecular target: T1, Mitogen-activated protein kinase 1; remark: listed apart in the source
[4] = molecular target: T1, Mitogen-activated protein kinase 1; remark: listed apart in the source
[5] = molecular target: T1, Mitogen-activated protein kinase 1; remark: listed apart in the source
[6] = molecular target: T1, Mitogen-activated protein kinase 1; remark: listed apart in the source
[7] = molecular target: T1, Mitogen-activated protein kinase 1; test: Inhibition of MEK U911-activated ERK2 (unknown origin) using ERKtide as substrate preincubated for 20 mins followed by substrate addition in presence of ATP at Km concentration after 20 mins by rapidfire mass spectrometry analysis
[8] = molecular target: T1, Mitogen-activated protein kinase 1; test: Inhibition of MEK U911-activated ERK2 (unknown origin) using ERKtide as substrate preincubated for 20 mins followed by substrate addition in presence of 1 mM ATP after 10 mins by rapidfire mass spectrometry analysis
[9] = molecular target: T2, Mitogen-activated protein kinase; ERK1/ERK2 (Homo sapiens, UniProt P27361+P28482); test: Inhibition of ERK1/2 in human A375 cells assessed as inhibition of ERK phosphorylation after 2 hrs; type: cell-based
[10] = molecular target: T2, Mitogen-activated protein kinase; ERK1/ERK2; test: Inhibition of ERK1/2 in human A375 cells assessed as inhibition of RSK phosphorylation after 2 hrs; type: cell-based
[11] = molecular target: Voltage-gated inwardly rectifying potassium channel KCNH2 (Homo sapiens, UniProt Q12809)
Chain of Voltage-gated inwardly rectifying potassium channel KCNH2 (Q12809 whole entry): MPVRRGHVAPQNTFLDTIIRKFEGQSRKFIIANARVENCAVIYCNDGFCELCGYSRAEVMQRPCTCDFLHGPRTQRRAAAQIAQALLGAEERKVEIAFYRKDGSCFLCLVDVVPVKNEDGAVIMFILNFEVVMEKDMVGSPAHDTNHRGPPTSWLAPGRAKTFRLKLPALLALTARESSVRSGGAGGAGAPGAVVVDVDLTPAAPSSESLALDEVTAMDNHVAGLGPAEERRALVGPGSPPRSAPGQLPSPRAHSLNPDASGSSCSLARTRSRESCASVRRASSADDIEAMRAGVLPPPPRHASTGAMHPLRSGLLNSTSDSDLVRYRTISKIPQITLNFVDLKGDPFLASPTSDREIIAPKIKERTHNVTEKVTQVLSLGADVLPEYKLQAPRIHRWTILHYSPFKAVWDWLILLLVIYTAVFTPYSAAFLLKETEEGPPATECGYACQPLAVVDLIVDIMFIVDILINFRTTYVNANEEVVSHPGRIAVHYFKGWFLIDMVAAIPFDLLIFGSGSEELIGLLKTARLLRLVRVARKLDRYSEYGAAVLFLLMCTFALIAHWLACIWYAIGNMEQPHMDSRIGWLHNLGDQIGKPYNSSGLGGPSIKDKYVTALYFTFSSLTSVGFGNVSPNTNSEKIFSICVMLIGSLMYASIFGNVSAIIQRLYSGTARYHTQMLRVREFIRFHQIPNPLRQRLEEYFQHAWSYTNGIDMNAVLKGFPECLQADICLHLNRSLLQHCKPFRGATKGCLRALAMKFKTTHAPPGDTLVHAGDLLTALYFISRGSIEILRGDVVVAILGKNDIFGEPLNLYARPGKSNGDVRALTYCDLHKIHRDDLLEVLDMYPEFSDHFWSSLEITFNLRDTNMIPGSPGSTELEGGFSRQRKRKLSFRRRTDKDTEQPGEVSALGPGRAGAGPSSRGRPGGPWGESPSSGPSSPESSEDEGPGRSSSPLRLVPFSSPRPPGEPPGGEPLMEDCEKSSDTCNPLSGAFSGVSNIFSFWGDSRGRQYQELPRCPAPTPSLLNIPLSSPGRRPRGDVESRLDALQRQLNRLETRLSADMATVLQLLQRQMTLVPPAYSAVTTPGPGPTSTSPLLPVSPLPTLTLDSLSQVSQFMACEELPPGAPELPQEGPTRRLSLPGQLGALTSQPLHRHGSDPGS

T1 sequence (P28482 whole entry): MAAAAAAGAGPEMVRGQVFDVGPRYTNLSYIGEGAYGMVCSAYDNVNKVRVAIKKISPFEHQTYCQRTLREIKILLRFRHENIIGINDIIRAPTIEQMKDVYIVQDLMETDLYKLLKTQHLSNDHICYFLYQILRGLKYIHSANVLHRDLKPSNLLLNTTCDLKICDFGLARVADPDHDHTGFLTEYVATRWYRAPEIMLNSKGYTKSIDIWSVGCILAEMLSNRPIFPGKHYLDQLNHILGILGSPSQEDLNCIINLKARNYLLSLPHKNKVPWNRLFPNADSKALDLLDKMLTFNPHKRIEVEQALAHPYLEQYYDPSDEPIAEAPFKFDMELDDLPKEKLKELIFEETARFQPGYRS

Row | Structure (SMILES) | Ka [1] | Ka [2] [×10⁻⁶ /M/s] | Kdiss [3] | Kdiss [4] [×10⁻⁴ /s] | T1/2 [5] [min] | T1/2 [6] [min] | IC50 [7] [nM] | IC50 [8] [nM] | IC50 [9] [nM] | IC50 [10] [nM] | IC50 [11] [nM]
1 | Cc1cccc(CN2C(=O)c3cc(-c4nc(Nc5ccnn5C)ncc4C)cn3C[C@H]2C)n1 | 1.3 ×10⁻⁶ /M/s | 1.9 | 1 ×10⁻³ /s | 3.2 | 11.9 | 37 |  |  |  |  | 
2 | O=C(Nc1ccc2[nH]nc(-c3ccncc3)c2c1)[C@@H]1CCN(CC(=O)N2CCN(c3ccc(-c4ncccn4)cc3)CC2)C1 | 9.4 ×10⁻⁵ /M/s | 1.3 | 4.4 ×10⁻⁵ /s |  | 291 | 127 |  |  |  |  | 
3 | CC(C)Nc1cc(-c2c[nH]c(C(=O)N[C@H](CO)c3cccc(Cl)c3)c2)c(Cl)cn1 | 7.5 ×10⁻⁵ /M/s | 1.3 | 7.4 ×10⁻³ /s | 4.1 | 2 | 35 |  |  |  |  | 

Further lines, with some results ahead:

Row | Ka [1] | Ka [2] [×10⁻⁶ /M/s] | Kdiss [3] | Kdiss [4] [×10⁻⁴ /s] | T1/2 [5] [min] | T1/2 [6] [min] | IC50 [7] [nM] | IC50 [8] [nM] | IC50 [9] [nM] | IC50 [10] [nM] | Structure (SMILES) | IC50 [11] [nM]
4 |  |  |  |  |  |  | < 0.3 | 0.34 | 4.7 | 12 | Cc1cnc(Nc2ccnn2C)nc1-c1cn2c(n1)C(=O)N(Cc1cccc(Cl)c1)CC2 | 
5 |  |  |  |  |  |  | 0.83 | 2.6 | 9.1 | 31 | Cc1cnc(Nc2ccnn2C)nc1-c1cn2c(n1)C(=O)N(Cc1ccc(F)c(F)c1)CC2 | 23000
